Measurements: the supplement of paper PMC10307832

What was measured:
Experiment in all cases: relative viability (nuclei count vs DMSO), 5 days (fraction); higher = more cells survive
Indole-3-carbinol = compound: OCc1c[nH]c2ccccc12 [Indole-3-carbinol]
Method in brief: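 Viability was defined as treated-well nuclei divided by vehicle-well nuclei, with the median taken over replicate plates. Cells from lung cancer lines sat overnight at 37 °C in 1536-well plates, received five √10-spaced library-drug doses by pinning on vehicle-anchored plates, and grew 5 days without medium change before one-step fixation, permeabilisation and Hoechst staining, 4× imaging and MetaXpress nuclear counts. Only plates with control CV under 25% and at least one doubling were kept.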

[1] = compound: OCc1c[nH]c2ccccc12 [Indole-3-carbinol] + CC(C)C[C@H](NC(=O)[C@H](Cc1ccccc1)NC(=O)c1cnccn1)B(O)O [Bortezomib] (partner 0.002 µM)
Method in brief: (§1)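 Relative viability divides the nuclei count in treated wells by that in vehicle wells. Lung cancer cell lines were seeded in 1536-well plates, dosed by pin tool the next day, and fixed and stained after 5 days in one step with final 0.05% Triton X-100, 1% formaldehyde and 1 ug/ml Hoechst. Dosing was a single drug or a fixed anchor-drug dose plus five library-drug doses (not always all listed) in √10 steps, and values are medians of duplicate plates imaged at 4×.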

[2] = compound: OCc1c[nH]c2ccccc12 [Indole-3-carbinol] + CS(=O)(=O)N1CCN(Cc2cc3nc(-c4cccc5[nH]ncc45)nc(N4CCOCC4)c3s2)CC1 [Pictilisib] (partner 1 µM)
Method in brief: as §1

[3] = compound: OCc1c[nH]c2ccccc12 [Indole-3-carbinol] + CC1(C)CCC(c2ccc(Cl)cc2)=C(CN2CCN(c3ccc(C(=O)NS(=O)(=O)c4ccc(N[C@H](CCN5CCOCC5)CSc5ccccc5)c(S(=O)(=O)C(F)(F)F)c4)cc3)CC2)C1 [Navitoclax] (partner 0.5 µM)
Method in brief: as §1

[4] = compound: OCc1c[nH]c2ccccc12 [Indole-3-carbinol] + COc1cc2c(Oc3ccc(NC(=O)C4(C(=O)Nc5ccc(F)cc5)CC4)cc3F)ccnc2cc1OCCCN1CCOCC1 [Foretinib] (partner 0.25 µM)
Method in brief: as §1

[5] = compound: OCc1c[nH]c2ccccc12 [Indole-3-carbinol] + O=C(c1cc(Cc2n[nH]c(=O)c3ccccc23)ccc1F)N1CCN(C(=O)C2CC2)CC1 [Olaparib] (partner 8 µM)
Method in brief: as §1

[6] = compound: OCc1c[nH]c2ccccc12 [Indole-3-carbinol] + CS(=O)(=O)CCNCc1ccc(-c2ccc3ncnc(Nc4ccc(OCc5cccc(F)c5)c(Cl)c4)c3c2)o1 [Lapatinib] (partner 2 µM)
Method in brief: as §1

[7] = compound: OCc1c[nH]c2ccccc12 [Indole-3-carbinol] + C[C@@H](Oc1cc(-c2cnn(C3CCNCC3)c2)cnc1N)c1c(Cl)ccc(F)c1Cl [Crizotinib] (partner 1 µM)
Method in brief: as §1

[8] = compound: OCc1c[nH]c2ccccc12 [Indole-3-carbinol] + C[C@]1(O)C[C@@H](c2nc(-c3ccc4ccc(-c5ccccc5)nc4c3)c3c(N)nccn32)C1 [Linsitinib] (partner 1 µM)
Method in brief: as §1

[9] = compound: OCc1c[nH]c2ccccc12 [Indole-3-carbinol] + Cc1nc(NC(=O)N2CCC[C@H]2C(N)=O)sc1-c1ccnc(C(C)(C)C(F)(F)F)c1 [Alpelisib] (partner 2 µM)
Method in brief: as §1

[10] = compound: OCc1c[nH]c2ccccc12 [Indole-3-carbinol] + NC(=O)Nc1cc(-c2cccc(F)c2)sc1C(=O)N[C@H]1CCCNC1 [AZD7762] (partner 0.2 µM)
Method in brief: as §1

[11] = compound: OCc1c[nH]c2ccccc12 [Indole-3-carbinol] + O=C(CCCCCCC(=O)Nc1ccccc1)NO [Vorinostat] (partner 1 µM)
Method in brief: as §1

[12] = compound: OCc1c[nH]c2ccccc12 [Indole-3-carbinol] + Cc1cc(Nc2cc(N3CCN(C)CC3)nc(Sc3ccc(NC(=O)C4CC4)cc3)n2)n[nH]1 [Tozasertib] (partner 0.1 µM)
Method in brief: as §1

[13] = compound: OCc1c[nH]c2ccccc12 [Indole-3-carbinol] + Nc1ncn([C@H]2C[C@H](O)[C@@H](CO)O2)c(=O)n1 [Decitabine] (partner 2 µM)
Method in brief: as §1

[14] = compound: OCc1c[nH]c2ccccc12 [Indole-3-carbinol] + CC(=O)Nc1cccc(-n2c(=O)n(C3CC3)c(=O)c3c(Nc4ccc(I)cc4F)n(C)c(=O)c(C)c32)c1 [Trametinib] (partner 0.02 µM)
Method in brief: as §1

[15] = compound: OCc1c[nH]c2ccccc12 [Indole-3-carbinol] + CC(=O)c1c(C)c2cnc(Nc3ccc(N4CCNCC4)cn3)nc2n(C2CCCC2)c1=O [Palbociclib] (partner 0.5 µM)
Method in brief: as §1

[16] = compound: OCc1c[nH]c2ccccc12 [Indole-3-carbinol] + Nc1nc2[nH]cc(CCc3ccc(C(=O)N[C@@H](CCC(=O)O)C(=O)O)cc3)c2c(=O)[nH]1 [Pemetrexed] (partner 0.2 µM)
Method in brief: as §1

[17] = compound: OCc1c[nH]c2ccccc12 [Indole-3-carbinol] + COc1cccc2cc(-c3nc([C@H]4CC[C@H](C(=O)O)CC4)n4ncnc(N)c34)[nH]c12 [OSI-027] (partner 0.5 µM)
Method in brief: as §1

## EBC-1
Indole-3-carbinol; 0.253 µM
  relative viability: 0.938
Indole-3-carbinol; 0.8 µM
  relative viability: 1.01
Indole-3-carbinol; 2.53 µM
  relative viability: 1.07
Indole-3-carbinol; 8 µM
  relative viability: 0.871
[1]; first compound 0.253 µM
  relative viability: 0.546
[1]; first compound 0.8 µM
  relative viability: 0.541
[1]; first compound 2.53 µM
  relative viability: 0.628
[1]; first compound 8 µM
  relative viability: 0.477
[2]; first compound 0.253 µM
  relative viability: 0.359
[2]; first compound 0.8 µM
  relative viability: 0.4
[2]; first compound 2.53 µM
  relative viability: 0.347
[2]; first compound 8 µM
  relative viability: 0.364
[3]; first compound 0.253 µM
  relative viability: 0.355
[3]; first compound 0.8 µM
  relative viability: 0.404
[3]; first compound 2.53 µM
  relative viability: 0.39
[3]; first compound 8 µM
  relative viability: 0.415
[4]; first compound 0.253 µM
  relative viability: 0.122
[4]; first compound 0.8 µM
  relative viability: 0.0975
[4]; first compound 2.53 µM
  relative viability: 0.1
[4]; first compound 8 µM
  relative viability: 0.102
[5]; first compound 0.253 µM
  relative viability: 0.684
[5]; first compound 0.8 µM
  relative viability: 0.732
[5]; first compound 2.53 µM
  relative viability: 0.631
[5]; first compound 8 µM
  relative viability: 0.566
[6]; first compound 0.253 µM
  relative viability: 0.196
[6]; first compound 0.8 µM
  relative viability: 0.186
[6]; first compound 2.53 µM
  relative viability: 0.228
[6]; first compound 8 µM
  relative viability: 0.244
[7]; first compound 0.253 µM
  relative viability: 0.176
[7]; first compound 0.8 µM
  relative viability: 0.188
[7]; first compound 2.53 µM
  relative viability: 0.205
[7]; first compound 8 µM
  relative viability: 0.169
[8]; first compound 0.253 µM
  relative viability: 0.974
[8]; first compound 0.8 µM
  relative viability: 0.965
[8]; first compound 2.53 µM
  relative viability: 1.07
[8]; first compound 8 µM
  relative viability: 0.71
[9]; first compound 0.253 µM
  relative viability: 0.826
[9]; first compound 0.8 µM
  relative viability: 0.856
[9]; first compound 2.53 µM
  relative viability: 0.83
[9]; first compound 8 µM
  relative viability: 0.719

## NCI-H1648
Indole-3-carbinol; 0.253 µM
  relative viability: 1.07
Indole-3-carbinol; 0.8 µM
  relative viability: 0.846
Indole-3-carbinol; 2.53 µM
  relative viability: 0.911
Indole-3-carbinol; 8 µM
  relative viability: 0.949
[10]; first compound 0.253 µM
  relative viability: 0.555
[10]; first compound 0.8 µM
  relative viability: 0.613
[10]; first compound 2.53 µM
  relative viability: 0.773
[10]; first compound 8 µM
  relative viability: 0.637
[11]; first compound 0.253 µM
  relative viability: 0.301
[11]; first compound 0.8 µM
  relative viability: 0.825
[11]; first compound 2.53 µM
  relative viability: 0.333
[11]; first compound 8 µM
  relative viability: 0.41
[5]; first compound 0.253 µM
  relative viability: 1.27
[5]; first compound 0.8 µM
  relative viability: 0.69
[5]; first compound 2.53 µM
  relative viability: 0.868
[5]; first compound 8 µM
  relative viability: 0.572
[12]; first compound 0.253 µM
  relative viability: 0.835
[12]; first compound 0.8 µM
  relative viability: 0.488
[12]; first compound 2.53 µM
  relative viability: 0.439
[12]; first compound 8 µM
  relative viability: 0.473
[13]; first compound 0.253 µM
  relative viability: 0.482
[13]; first compound 0.8 µM
  relative viability: 0.434
[13]; first compound 2.53 µM
  relative viability: 0.598
[13]; first compound 8 µM
  relative viability: 0.499
[14]; first compound 0.253 µM
  relative viability: 0.486
[14]; first compound 0.8 µM
  relative viability: 0.423
[14]; first compound 2.53 µM
  relative viability: 0.59
[14]; first compound 8 µM
  relative viability: 0.521
[15]; first compound 0.253 µM
  relative viability: 0.31
[15]; first compound 0.8 µM
  relative viability: 0.248
[15]; first compound 2.53 µM
  relative viability: 0.296
[15]; first compound 8 µM
  relative viability: 0.289
[16]; first compound 0.253 µM
  relative viability: 0.663
[16]; first compound 0.8 µM
  relative viability: 0.745
[16]; first compound 2.53 µM
  relative viability: 0.822
[16]; first compound 8 µM
  relative viability: 0.715
[17]; first compound 0.253 µM
  relative viability: 0.258
[17]; first compound 0.8 µM
  relative viability: 0.235
[17]; first compound 2.53 µM
  relative viability: 0.272
[17]; first compound 8 µM
  relative viability: 0.242
